# Source: patent US9440946B2, “N-phenethylcarboxamide derivatives” (BAYER INTELLECTUAL PROPERTY GMBH, priority 2005, dated 2016)
# What was measured:
# Alternaria brassicae = test: In vivo test on Alternaria brassicae (leaf spot of crucifers), preventive spray on radish plants; settings: radish plants (Pernot variety), contaminated 24 hours after treatment, grading 6 to 7 days after contamination vs control plants, read-out: protection (good, at least 70%, or total); for pest or weed control at 330 ppm: dose of 330 ppm; for pest or weed control at 500 ppm: dose of 500 ppm
# Method: (§1) The active ingredients tested are prepared by homogenization in a mixture of acetone/tween/DMSO, then diluted with water to obtain the desired active material concentration.
# Radish plants (Pernot variety), sown on a 50/50 peat soil-pozzolana substrate in starter cups and grown at 18-20° C., are treated at the cotyledon stage by spraying with the active ingredient prepared as described above.
# (§2) Plants, used as controls, are treated with the mixture of acetone/tween/DMSO/water not containing the active material.
# After 24 hours, the plants are contaminated by spraying them with an aqueous suspension of Alternaria brassicae spores (40,000 spores per cm^3). The spores are collected from a 12 to 13 days-old culture.
# The contaminated radish plants are incubated for 6-7 days at about 18° C., under a humid atmosphere.
# Grading is carried out 6 to 7 days after the contamination, in comparison with the control plants.
# Pyrenophora teres = test: In vivo test on Pyrenophora teres (barley net blotch), preventive spray on barley plants; settings: 288 h, barley plants (Express variety), contaminated 24 hours after treatment, grading 12 days after contamination vs control plants, read-out: protection (good, at least 70%, or total); for pest or weed control at 330 ppm: dose of 330 ppm
# Method: as §1
# Barley plants (Express variety), sown on a 50/50 peat soil-pozzolana substrate in starter cups and grown at 12° C., are treated at the 1-leaf stage (10 cm tall) by spraying with the active ingredient prepared as described above. Plants, used as controls, are treated with the mixture of acetone/tween/DMSO/water not containing the active material.
# After 24 hours, the plants are contaminated by spraying them with an aqueous suspension of Pyrenophora teres spores (12,000 spores per ml). The spores are collected from a 12-day-old culture. The contaminated barley plants are incubated for 24 hours at about 20° C. and at 100% relative humidity, and then for 12 days at 80% relative humidity.
# Grading is carried out 12 days after the contamination, in comparison with the control plants.
# Botrytis cinerea = test: In vivo test on Botrytis cinerea (cucumber grey mould), preventive spray on gherkin plants; settings: gherkin plants (Vert petit de Paris variety), contaminated 24 hours after treatment, grading 5/7 days after contamination vs control plants, read-out: protection (good, at least 50%, or total); for pest or weed control at 500 ppm: dose of 500 ppm; for pest or weed control at 330 ppm: dose of 330 ppm
# Method: The active ingredients tested are prepared by homogenization in a mixture of acetone/tween/DMSO, then diluted with water to obtain the desired active material
# Gherkin plants (Vert petit de Paris variety), sown on a 50/50 peat soil-pozzolana substrate in starter cups and grown at 18-20° C., are treated at the cotyledon Z11 stage by spraying with the active ingredient prepared as described above.
# as §2
# After 24 hours, the plants are contaminated by depositing drops of an aqueous suspension of Botrytis cinerea spores (150,000 spores per ml) on upper surface of the leaves. The spores are collected from a 15-day-old culture and are suspended in a nutrient solution composed of: • 20 g/L of gelatin • 50 g/L of cane sugar • 2 g/L of NH4NO3 • 1 g/L of KH2PO4
# The contaminated cucumber plants are settled for 5/7 days in a climatic room at 15-11° C. (day/night) and at 80% relative humidity.
# Grading is carried out 5/7 days after the contamination, in comparison with the control plants. Under these conditions, good (at least 50%) or total protection is observed: • at a dose of 500 ppm with the following compounds: C-1, D-12, G-8 and I-1; and • at a dose of 330 ppm with the following compounds: G-2, G-5, G-6 and G11.
Compound,pest or weed control at 330 ppm (Alternaria brassicae),pest or weed control at 330 ppm (Pyrenophora teres),other results
Cc1ccccc1CCNC(=O)c1cn(C)nc1C(F)F [Compound G-12],≥ 70%,–,–
Cc1ccc(C)c(CCNC(=O)c2cn(C)nc2C(F)(F)F)c1 [Compound G-17],≥ 70%,–,–
Cn1cc(C(=O)NCCc2ccc(F)cc2F)c(C(F)(F)F)n1 [Compound G-20],–,≥ 70%,–
Cc1ccsc1C(=O)NCCc1ccc(Cl)cc1Cl [Compound A-2],–,–,pest or weed control at 500 ppm (Alternaria brassicae): ≥ 70%
Cc1ccccc1CCNC(=O)c1cccnc1Cl [Compound E-2],≥ 70%,–,–
Cc1occc1C(=O)NCCc1ccc(Cl)cc1Cl [Compound C-1],–,–,pest or weed control at 500 ppm (Botrytis cinerea): ≥ 50%
Cc1nc(C(F)(F)F)c(C(=O)NCCc2ccccc2C)s1 [Compound D-6],–,≥ 70%,–
COc1ccc(OC)c(CCNC(=O)c2cn(C)nc2C(F)F)c1 [Compound G-7],≥ 70%,–,–
Cc1nc(C(F)F)c(C(=O)NCCc2ccc(Cl)cc2Cl)s1 [Compound D-12],–,–,pest or weed control at 500 ppm (Botrytis cinerea): ≥ 50%
Cn1cc(C(=O)NCCc2ccccc2Cl)c(C(F)F)n1 [Compound G-2],≥ 70%,≥ 70%,pest or weed control at 330 ppm (Botrytis cinerea): ≥ 50%
O=C(NCCc1ccc(Cl)cc1Cl)c1ccsc1I [Compound I-1],–,–,pest or weed control at 500 ppm (Botrytis cinerea): ≥ 50%; pest or weed control at 500 ppm (Alternaria brassicae): ≥ 70%
Cc1nc(N)sc1C(=O)NCCc1ccc(Cl)cc1Cl [Compound D-8],–,–,pest or weed control at 500 ppm (Pyrenophora teres; dose of 500 ppm): ≥ 70%; pest or weed control at 500 ppm (Alternaria brassicae): ≥ 70%
Cc1ccc(CCNC(=O)c2cn(C)nc2C(F)F)c(C)c1 [Compound G-5],≥ 70%,≥ 70%,pest or weed control at 330 ppm (Botrytis cinerea): ≥ 50%
Cn1cc(C(=O)NCCc2ccc(F)cc2F)c(C(F)F)n1 [Compound G-8],≥ 70%,≥ 70%,pest or weed control at 500 ppm (Botrytis cinerea): ≥ 50%
COc1cccc(CCNC(=O)c2cn(C)nc2C(F)F)c1OC [Compound G-3],≥ 70%,–,–
COc1ccc(Br)cc1CCNC(=O)c1cn(C)nc1C(F)F [Compound G-10],≥ 70%,–,–
COc1ccccc1CCNC(=O)c1cn(C)nc1C(F)F [Compound G-4],≥ 70%,≥ 70%,–
Cc1ccc(C)c(CCNC(=O)c2cccnc2Cl)c1 [Compound E-1],≥ 70%,–,–
Cc1ccc(CCNC(=O)c2cccnc2Cl)c(C)c1 [Compound E-9],≥ 70%,–,–
Cc1nc(C(F)(F)F)c(C(=O)NCCc2c(Cl)cccc2Cl)s1 [Compound D-4],≥ 70%,–,–
Cc1ccc(CCNC(=O)c2sc(C)nc2C(F)(F)F)c(C)c1 [Compound D-2],≥ 70%,–,–
Cn1cc(C(=O)NCCc2c(Cl)cc(C(F)(F)F)cc2Cl)c(C(F)F)n1 [Compound G-11],–,≥ 70%,pest or weed control at 330 ppm (Botrytis cinerea): ≥ 50%
Cn1cc(C(=O)NCCc2c(Cl)cccc2Cl)c(C(F)F)n1 [Compound G-6],≥ 70%,≥ 70%,pest or weed control at 330 ppm (Botrytis cinerea): ≥ 50%
Cn1cc(C(=O)NCCc2ccc(C(F)(F)F)cc2Cl)c(C(F)(F)F)n1 [Compound G-15],≥ 70%,≥ 70%,–
Cc1ccccc1CCNC(=O)c1cn(C)nc1C(F)(F)F [Compound G-14],≥ 70%,–,–
